Laboratory results from US20120283293A1, “Methods of neuroprotection involving Prostaglandin E2 EP4 (PGE2 EP4) receptor activation” (The Board of Trustees of the Leland Stanford Junior …, priority 2011, published 2012).

Key:
primary human monocytes = assay: TNF-α and IL-6 ELISA in LPS-stimulated primary human monocytes; format: cell-based; conditions: LPS 100 ng/ml, AE1-329 100 nM, 6 hours
Description: Human monocyte derived macrophages were purchased from AllCells (Catalog #PB-MDM-001F: Frozen normal peripheral blood monocyte derived macrophages) and plated at a density of 23,000 cells per well in a 96 well plate. Two dilutions (1:5 and 1:10) were tested using anti-human IL6 and anti-human TNFα ELISA to measure concentrations of these two cytokines in pg/ml after 6 hours of stimulation with either vehicle alone, AE1-329 (100 nM), LPS, and LPS plus AE1-329 (100 nM).
Primary human monocytes were stimulated with either vehicle (PBS) alone, AE1-329 (100 nM), LPS (100 ng/ml), and LPS (100 ng/ml) plus AE1-329 (100 nM). Two dilutions (1:5 and 1:10) were tested using anti-human IL6 and anti-human TNF-α ELISA to measure concentrations of these two cytokines in pg/ml after 6 hours of stimulation.

[1] = test system: microglia isolated from adult mouse brain; assay: inflammatory gene expression in microglia isolated from adult brain of LPS-treated mice; format: in vivo; conditions: 2-3 mo C57B6 male mice, LPS 5 mg/kg i.p., AE1-329 0.3 mg/kg subcutaneously, microglia harvested at 6 hours
Description: qPCR was carried out as previously described (Liang et al., 2008). Briefly, total RNA was isolated using Trizol reagent (Invitrogen, Carlsbad, Calif.), treated with DNAse (Invitrogen), and the reaction was terminated by heating at 65° C. for 10 minutes. First strand cDNA synthesis was performed with 1.5 μg of total RNA, 4 units of Omniscript enzyme (Qiagen, Valencia, Calif.) and 0.25 μg of random primer in a reaction volume of 20 μl at 37° C. for 1 hour. Reverse transcribed cDNA was diluted 1:20 in RNAse free ddH2O for subsequent RT-PCR. The mRNA level for each target gene was quantified by SYBR Green-based qPCR using the QuantiTect SYBR Green PCR kit (Qiagen). Melting curve analysis confirmed the specificity of each reaction. […] Quantification was performed using the standard curve method. […]
Adult microglial cell isolation was carried according to the methods of Cardona et al., 2006, and cells were processed for RNA isolation or flow cytometry. […] Purity of the microglial preparation was determined in separate experiments by labeling ˜10^5 cells/ml with phycoerythrin (PE)-conjugated hamster anti-mouse CD11b or IgG isotype control (1:100; eBioscience, San Diego, Calif.) for 30 minutes on ice. […] Flow cytometry was performed on a LSR II (BD Biosciences), and data analyzed with FlowJo 7.2.2 software. […]

COCc1ccccc1CC[C@H](O)/C=C/[C@H]1[C@H](O)CC(=O)[C@@H]1SCCCSCC(=O)O [AE1-329]
LPS-induced increase in IL-6 levels (ELISA) (primary human monocytes): significantly reduced
LPS-induced increase in TNF-α levels (ELISA) (primary human monocytes): entirely reversed
LPS-induced microglial COX-2, iNOS, IL-6, TNF-α and gp91phox expression [1]: significantly reduced
